# Test results published in patent publication US8703950B2, “Low ABUK oxycodone, its salts and methods of making same” (Johnson Matthey Public Limited Co., priority 2010, dated 2014).
# Experiments:
# [1] = mixture of the two diol species in acid, 20 hour period
# [2] = Hot acid stress test (aq. HCl, 65° C., 14-hydroxycodeinone monitored by LC/MS); format: physicochemical; conditions: for growth in 14-hydroxycodeinone in hot acid: 65° C. aq. hydrochloride acid at pH<1, after 24 hours; for ABUK (14-hydroxycodeinone) level, 2 hours in hot acid / ABUK (14-hydroxycodeinone) level, 5 hours in hot acid / ABUK (14-hydroxycodeinone) level, 24 hours in hot acid: 65° C., aq. HCl; for ABUK (14-hydroxycodeinone) level, 0 hours in hot acid (T-zero): before heating, water + 3N aq. HCl
# [3] = Dry heat stress test (lab drying oven under air at 62° C., 14-hydroxycodeinone monitored by LC/MS); format: physicochemical; conditions: for growth of 14-hydroxycodeinone, dry heat: dry heat (greater than 60° C.), after 14 days; for ABUK (14-hydroxycodeinone) level, 4 days at 62° C. / ABUK (14-hydroxycodeinone) level, 7 days at 62° C. / ABUK (14-hydroxycodeinone) level, 14 days at 62° C.: dry heat, under air; for growth in the level of 14-hydroxycodeinone, dry heat at 62° C.: under air at 62° C., monitored for 14 days
# Experimental: A 0.0225 g (0.597 sample of low ABUK oxycodone HCl (T-zero: 3.9 ppm 14-hydroxycodeinone) was placed in a standard lab drying oven under air at 62° C. and the level of 14-hydroxycodeinone was monitored by LC/MS for 14 days. No growth in the level of 14-hydroxycodeinone was observed.
# A 0.0225 g (0.597 sample of low ABUK oxycodone (T zero: 3.3 ppm 14-hydroxycodeinone by LC/MS was placed in a standard lab drying oven under air at 62° C. and the level of 14-hydroxycodeinone was monitored by LC/MS for 14 days. No growth in the level of 14-hydroxycodeinone was observed
# 1.10 Procedure: • Separately inject the diluent as a blank. • Inject the resolution solution once. • Inject the impurity working standard three times. • Inject each sample solution under the full gradient. • Inject the diluent at the end. • Quantify the level of 14-Hydroxy Codeinone in the sample by comparing to the averaged corresponding peak specific response (SR) of the standard solution. • Report the level of 14-Hydroxy Codeinone found in the sample to the nearest 0.0001%. • Report the peak area of the diols for information only.
Structure (SMILES),degradation on exposure to acid [1],growth in 14-hydroxycodeinone in hot acid [2],"ABUK (14-hydroxycodeinone) level, 2 hours in hot acid [2] [ppm]","ABUK (14-hydroxycodeinone) level, 5 hours in hot acid [2] [ppm]","ABUK (14-hydroxycodeinone) level, 24 hours in hot acid [2] [ppm]","ABUK (14-hydroxycodeinone) level, 0 hours in hot acid (T-zero) [2] [ppm]","ABUK (14-hydroxycodeinone) level, 0 hours in hot acid (T-zero) ([2]; listed as low ABUK oxycodone base) [ppm]","ABUK (14-hydroxycodeinone) level, T-zero (dry heat test) [3] [ppm]","growth of 14-hydroxycodeinone, dry heat [3]","ABUK (14-hydroxycodeinone) level, 4 days at 62° C. [3] [ppm]","ABUK (14-hydroxycodeinone) level, 7 days at 62° C. [3] [ppm]","ABUK (14-hydroxycodeinone) level, 14 days at 62° C. [3] [ppm]","growth in the level of 14-hydroxycodeinone, dry heat at 62° C. [3]"
"COc1ccc2c3c1O[C@H]1C(=O)C[C@H](O)[C@@]4(O)[C@@H](C2)N(C)CC[C@]314 (single isomer, unassigned) [peak at RRT 0.91]",degraded little,,,,,,,,,,,,
"COc1ccc2c3c1O[C@H]1C(=O)CC[C@@]4(O)[C@@H](C2)N(C)CC[C@]314 [Oxycodone Base from Example 9, oxycodone base]",,no or minimal growth,2.5,3.3,6.4,2.5,2.7,3.3,no growth,3.4,3.3,3.6,No growth
"COc1ccc2c3c1O[C@H]1C(=O)CC[C@@]4(O)[C@@H](C2)N(C)CC[C@]314.Cl [Oxycodone Hydrochloride from Example 11, oxycodone HCl]",,no or minimal growth,3.6,4.2,6.1,2.5,,3.9,no growth,3.7,4.0,3.7,No growth
